Test results: patent publication US9403813B2, “Azetidine amide derivatives as orexin receptor antagonists” (ACTELION PHARMACEUTICALS LTD, priority 2013, dated 2016)
Blank lines part the entries; values can stand above or below the compound they belong to.

How the values were obtained:
human orexin-2 receptor = human orexin-2 receptor (Homo sapiens (Human), UniProt O43614); test: Intracellular calcium measurements (FLIPR), antagonism of orexin-A response; type: cell-based; conditions: CHO cells expressing human orexin-2 receptor, 3 nM orexin-A, geometric mean if determined several times, read-out: IC50 OX2
Outline: (§1)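 CHO cells expressing human OX1 or OX2 receptor, loaded with fluo-4 AM plus probenecid, preincubated with antagonist 120 min before 3 nM orexin-A challenge. FLIPR calcium peak heights compared with agonist-plus-vehicle response. IC50 possibly normalized to on-plate reference; geometric mean of repeat determinations.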

human orexin-1 receptor = human orexin-1 receptor (Homo sapiens (Human), UniProt O43613); test: as above; type: cell-based; conditions: CHO cells expressing human orexin-1 receptor, 3 nM orexin-A, geometric mean if determined several times, read-out: IC50 OX1
Outline: as §1

human orexin-1 receptor, sequence (O43613 whole entry): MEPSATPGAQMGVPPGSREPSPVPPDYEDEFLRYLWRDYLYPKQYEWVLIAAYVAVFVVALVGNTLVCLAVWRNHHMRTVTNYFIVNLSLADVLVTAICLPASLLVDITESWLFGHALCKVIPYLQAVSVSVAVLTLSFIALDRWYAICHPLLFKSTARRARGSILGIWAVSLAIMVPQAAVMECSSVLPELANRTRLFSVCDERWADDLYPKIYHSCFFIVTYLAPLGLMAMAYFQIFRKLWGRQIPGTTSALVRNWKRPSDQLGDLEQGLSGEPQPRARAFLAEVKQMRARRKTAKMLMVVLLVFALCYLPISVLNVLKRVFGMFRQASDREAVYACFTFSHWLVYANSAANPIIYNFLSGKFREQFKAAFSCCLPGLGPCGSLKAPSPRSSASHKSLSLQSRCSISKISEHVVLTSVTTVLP
human orexin-2 receptor, sequence (O43614 whole entry): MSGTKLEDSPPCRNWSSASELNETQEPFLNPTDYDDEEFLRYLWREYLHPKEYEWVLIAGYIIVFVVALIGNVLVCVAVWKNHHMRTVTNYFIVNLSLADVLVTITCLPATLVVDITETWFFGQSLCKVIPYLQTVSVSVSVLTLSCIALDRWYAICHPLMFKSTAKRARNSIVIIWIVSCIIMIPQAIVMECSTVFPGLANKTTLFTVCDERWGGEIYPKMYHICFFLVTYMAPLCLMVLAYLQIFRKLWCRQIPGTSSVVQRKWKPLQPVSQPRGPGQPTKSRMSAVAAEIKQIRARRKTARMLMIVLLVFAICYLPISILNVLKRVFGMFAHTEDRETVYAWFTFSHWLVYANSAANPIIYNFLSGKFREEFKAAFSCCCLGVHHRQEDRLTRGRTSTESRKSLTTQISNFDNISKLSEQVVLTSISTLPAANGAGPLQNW

Compound: Cc1cccc(-c2scnc2C(=O)N2CC[C@H]2c2nc(-c3cccc(Cl)c3C)no2)c1 [Example 69, {(S)-2-[3-(3-Chloro-2-methyl-phenyl)-[1,2,4]oxadiazol-5-yl]-azetidin-1-yl}-(5-m-tolyl-thiazol-4-yl)-methanone]
IC50 (human orexin-2 receptor): 240 nM
IC50 (human orexin-1 receptor): 864 nM

Compound: Cc1cccc(-c2oc(C)nc2C(=O)N2CC[C@H]2c2nc(-c3cccc(Cl)c3C)no2)c1 [Example 71, {(S)-2-[3-(3-Chloro-2-methyl-phenyl)-[1,2,4]oxadiazol-5-yl]-azetidin-1-yl}-(2-methyl-5-m-tolyl-oxazol-4-yl)-methanone]
IC50 (human orexin-2 receptor): 555 nM
IC50 (human orexin-1 receptor): 693 nM

Compound: Cc1onc(-c2ccccc2Cl)c1C(=O)N1CC[C@H]1c1nc(-c2cccc(Cl)c2C)no1 [Example 72, {(S)-2-[3-(3-Chloro-2-methyl-phenyl)-[1,2,4]oxadiazol-5-yl]-azetidin-1-yl}-[3-(2-chloro-phenyl)-5-methyl-isoxazol-4-yl]-methanone]
IC50 (human orexin-2 receptor): 666 nM
IC50 (human orexin-1 receptor): 1400 nM

Compound: Cc1c(Cl)cccc1-c1noc([C@@H]2CCN2C(=O)c2ccccc2-c2ccccc2)n1 [Example 73, Biphenyl-2-yl-{(S)-2-[3-(3-chloro-2-methyl-phenyl)-[1,2,4]oxadiazol-5-yl]-azetidin-1-yl}-methanone]
IC50 (human orexin-2 receptor): 20 nM
IC50 (human orexin-1 receptor): 383 nM

Compound: COc1cc(C(=O)N2CC[C@H]2c2nc(-c3ccccc3OC(F)(F)F)no2)c(-n2nccn2)cc1Cl [Example 75, (4-Chloro-5-methoxy-2-[1,2,3]triazol-2-yl-phenyl)-{(S)-2-[3-(2-trifluoromethoxy-phenyl)-[1,2,4]oxadiazol-5-yl]-azetidin-1-yl}-methanone]
IC50 (human orexin-2 receptor): 12 nM
IC50 (human orexin-1 receptor): 378 nM

Compound: O=C(c1ccc(Cl)cc1-n1nccn1)N1CC[C@H]1c1nc(-c2ccccc2OC(F)(F)F)no1 [Example 77, (4-Chloro-2-[1,2,3]triazol-2-yl-phenyl)-{(S)-2-[3-(2-trifluoromethoxy-phenyl)-[1,2,4]oxadiazol-5-yl]-azetidin-1-yl}-methanone]
IC50 (human orexin-2 receptor): 28 nM
IC50 (human orexin-1 receptor): 616 nM

Compound: Cc1ccc(C(=O)N2CC[C@H]2c2nc(-c3ccccc3OC(F)(F)F)no2)c(-n2nccn2)c1 [Example 79, (4-Methyl-2-[1,2,3]triazol-2-yl-phenyl)-{(S)-2-[3-(2-trifluoromethoxy-phenyl)-[1,2,4]oxadiazol-5-yl]-azetidin-1-yl}-methanone]
IC50 (human orexin-2 receptor): 17 nM
IC50 (human orexin-1 receptor): 338 nM

More lines, now with the values ahead:

IC50 (human orexin-2 receptor): 2 nM
IC50 (human orexin-1 receptor): 97 nM
Compound: Cc1cc(C(=O)N2CC[C@H]2c2nc(-c3cccc(Cl)c3C)no2)c(-n2nccn2)cc1C [Example 70, {(S)-2-[3-(3-Chloro-2-methyl-phenyl)-[1,2,4]oxadiazol-5-yl]-azetidin-1-yl}-(4,5-dimethyl-2-[1,2,3]triazol-2-yl-phenyl)-methanone]

IC50 (human orexin-2 receptor): 6 nM
IC50 (human orexin-1 receptor): 578 nM
Compound: COc1cc(C(=O)N2CC[C@H]2c2nc(-c3cccc(Cl)c3C)no2)c(-n2nccn2)cc1Cl [Example 74, (4-Chloro-5-methoxy-2-[1,2,3]triazol-2-yl-phenyl)-{(S)-2-[3-(3-chloro-2-methyl-phenyl)-[1,2,4]oxadiazol-5-yl]-azetidin-1-yl}-methanone]

IC50 (human orexin-2 receptor): 11 nM
IC50 (human orexin-1 receptor): 909 nM
Compound: Cc1c(Cl)cccc1-c1noc([C@@H]2CCN2C(=O)c2ccc(Cl)cc2-n2nccn2)n1 [Example 76, {(S)-2-[3-(3-Chloro-2-methyl-phenyl)-[1,2,4]oxadiazol-5-yl]-azetidin-1-yl}-(4-chloro-2-[1,2,3]triazol-2-yl-phenyl)-methanone]

IC50 (human orexin-2 receptor): 22 nM
IC50 (human orexin-1 receptor): 646 nM
Compound: Cc1ccc(C(=O)N2CC[C@H]2c2nc(-c3cccc(Cl)c3C)no2)c(-n2nccn2)c1 [Example 78, {(S)-2-[3-(3-Chloro-2-methyl-phenyl)-[1,2,4]oxadiazol-5-yl]-azetidin-1-yl}-(4-methyl-2-[1,2,3]triazol-2-yl-phenyl)-methanone]
